Assay type in all cases: biochemical
For one assay, the target named is p110γ (Homo sapiens, UniProt P48736). Nature of the assay: Luciferase-based luminescence assay, p110γ.
In a further assay the target is mTOR (Homo sapiens, UniProt P42345). Nature of the assay: Luciferase-based luminescence assay, mTOR.
For the next assay, the target named is T1, p110δ (Homo sapiens, UniProt O00329).
T1 construct: purchased Millipore, Billerica, Mass., USA
Nature of the assay: Luciferase-based luminescence assay (Kinase GLO), PI3K delta. The settings on record: for IC50: 6.86 nM enzyme, 50 μM PIP2, 25 μM ATP, 2 hours; for α/δ ratio: ratio of IC50 against PI3Kα over IC50 against PI3Kδ. How it is done: (§1) PI3K catalyzes the conversion of phosphatidylinositol-4,5-bisphosphate (PIP2) and ATP to phosphatidylinositol-3,4,5-trisphosphate (PIP3) and ADP. PI3K enzymatic activity was determined by measuring the amount of ATP consumed following the kinase reaction using a luciferase-based luminescence assay (Kinase GLO®, Promega Corp., Madison, Wis., USA) in a reaction buffer. The reaction buffer contained 50 mM HEPES, pH 7.5, 3 mM MgCl2, 1 mM EGTA, 100 mM NaCl, 0.03% CHAPS, and 2 mM DTT. Compounds for testing were dissolved and serially diluted in 100% DMSO (total of 10 concentrations), and then diluted 1:25 in the reaction buffer. PI3K enzyme solutions were prepared by diluting PI3K alpha (Invitrogen Corp., Carlsbad, Calif., USA) or PI3K delta (Millipore, Billerica, Mass., USA) in the reaction buffer to 4× the final assay concentration. The final concentrations of enzymes were 1.65 nM and 6.86 nM for PI3K alpha and PI3K delta, respectively. A substrate solution was prepared by mixing PIP2 and ATP in reaction buffer at 2× the final assay concentration. The final concentrations were 50 μM and 25 μM for PIP2 and ATP, respectively. To individual wells of white low volume 384-well assay plates were added 2.5 μl each of the compound and kinase mixtures, followed by shaking. The reactions were started by adding 5 μl of substrate mixture per well and shaking. The assay plates were covered and reactions were allowed to proceed for 1 hour (PI3K alpha) or 2 hours (PI3K delta), after which 10 μl of Kinase GLO® reagent was added. The plates were briefly centrifuged and incubated for 10 minutes, after which luminescence was measured using a FlexStation plate reader (Molecular Devices, Sunnyvale, Calif., USA). IC50 values were determined by curve fitting using Graphpad Prism software (Graphpad Software, La Jolla, Calif., USA).
(In general: Kinase-Glo reads ATP consumption through a luciferase reaction.)

The target in the next assay is p110β (Homo sapiens, UniProt P42338). Description: Luciferase-based luminescence assay, p110β.
p110β, sequence (P42338 whole entry, species assumed): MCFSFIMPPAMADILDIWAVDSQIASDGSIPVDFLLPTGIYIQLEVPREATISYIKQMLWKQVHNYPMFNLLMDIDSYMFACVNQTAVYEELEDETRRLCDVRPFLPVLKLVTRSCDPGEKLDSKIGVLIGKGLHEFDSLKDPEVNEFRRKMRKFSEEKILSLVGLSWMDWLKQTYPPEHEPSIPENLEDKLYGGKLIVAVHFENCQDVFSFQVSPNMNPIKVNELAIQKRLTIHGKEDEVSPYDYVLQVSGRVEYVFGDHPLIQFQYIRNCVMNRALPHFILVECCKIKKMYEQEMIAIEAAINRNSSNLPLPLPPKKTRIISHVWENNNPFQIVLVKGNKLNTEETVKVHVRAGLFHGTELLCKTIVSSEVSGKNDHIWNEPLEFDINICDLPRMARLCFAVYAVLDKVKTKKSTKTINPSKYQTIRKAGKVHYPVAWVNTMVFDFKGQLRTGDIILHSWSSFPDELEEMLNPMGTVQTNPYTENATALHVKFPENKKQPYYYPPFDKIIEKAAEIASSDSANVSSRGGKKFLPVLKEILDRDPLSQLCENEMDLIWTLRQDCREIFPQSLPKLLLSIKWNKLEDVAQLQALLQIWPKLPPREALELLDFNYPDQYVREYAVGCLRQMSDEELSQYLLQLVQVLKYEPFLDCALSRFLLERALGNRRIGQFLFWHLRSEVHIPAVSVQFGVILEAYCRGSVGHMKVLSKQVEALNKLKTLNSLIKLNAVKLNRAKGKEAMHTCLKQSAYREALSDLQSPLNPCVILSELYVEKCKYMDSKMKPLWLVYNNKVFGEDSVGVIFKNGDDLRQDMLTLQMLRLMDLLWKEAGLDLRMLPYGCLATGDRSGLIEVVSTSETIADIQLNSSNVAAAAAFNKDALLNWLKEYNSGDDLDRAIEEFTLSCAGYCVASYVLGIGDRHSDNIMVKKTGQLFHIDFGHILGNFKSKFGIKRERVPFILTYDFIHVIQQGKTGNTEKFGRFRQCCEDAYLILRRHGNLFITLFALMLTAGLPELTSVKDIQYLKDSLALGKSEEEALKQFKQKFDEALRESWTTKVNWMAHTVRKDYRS
p110β, sequence (P27986 whole entry partner, species assumed): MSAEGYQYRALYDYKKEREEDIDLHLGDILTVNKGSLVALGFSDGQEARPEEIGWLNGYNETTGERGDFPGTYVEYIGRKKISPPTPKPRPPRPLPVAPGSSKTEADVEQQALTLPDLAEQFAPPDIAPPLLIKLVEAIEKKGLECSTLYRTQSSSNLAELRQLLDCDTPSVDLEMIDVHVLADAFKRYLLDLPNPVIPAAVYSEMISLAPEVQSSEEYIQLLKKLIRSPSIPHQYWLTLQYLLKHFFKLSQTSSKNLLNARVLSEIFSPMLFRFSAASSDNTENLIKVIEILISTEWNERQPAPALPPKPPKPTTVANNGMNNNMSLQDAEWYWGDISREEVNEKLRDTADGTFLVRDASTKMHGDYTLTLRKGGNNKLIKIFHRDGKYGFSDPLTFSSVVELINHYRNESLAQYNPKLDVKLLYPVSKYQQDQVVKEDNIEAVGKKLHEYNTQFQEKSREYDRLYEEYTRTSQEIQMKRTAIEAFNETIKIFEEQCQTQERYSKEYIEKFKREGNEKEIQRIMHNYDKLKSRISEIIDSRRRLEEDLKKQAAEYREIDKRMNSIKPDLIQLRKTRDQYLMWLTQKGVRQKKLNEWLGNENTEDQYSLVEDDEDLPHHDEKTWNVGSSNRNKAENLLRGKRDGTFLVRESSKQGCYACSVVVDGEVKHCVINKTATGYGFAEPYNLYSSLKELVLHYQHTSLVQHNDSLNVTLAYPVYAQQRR
Another assay concerns the target T2, p110α (Homo sapiens, UniProt P42336).
T2 construct: purchased Invitrogen Corp., Carlsbad, Calif., USA
Description: Luciferase-based luminescence assay (Kinase GLO), PI3K alpha. The settings on record: 1.65 nM enzyme, 50 μM PIP2, 25 μM ATP, 1 hour. The protocol:
as §1

T2 sequence (P42336 whole entry): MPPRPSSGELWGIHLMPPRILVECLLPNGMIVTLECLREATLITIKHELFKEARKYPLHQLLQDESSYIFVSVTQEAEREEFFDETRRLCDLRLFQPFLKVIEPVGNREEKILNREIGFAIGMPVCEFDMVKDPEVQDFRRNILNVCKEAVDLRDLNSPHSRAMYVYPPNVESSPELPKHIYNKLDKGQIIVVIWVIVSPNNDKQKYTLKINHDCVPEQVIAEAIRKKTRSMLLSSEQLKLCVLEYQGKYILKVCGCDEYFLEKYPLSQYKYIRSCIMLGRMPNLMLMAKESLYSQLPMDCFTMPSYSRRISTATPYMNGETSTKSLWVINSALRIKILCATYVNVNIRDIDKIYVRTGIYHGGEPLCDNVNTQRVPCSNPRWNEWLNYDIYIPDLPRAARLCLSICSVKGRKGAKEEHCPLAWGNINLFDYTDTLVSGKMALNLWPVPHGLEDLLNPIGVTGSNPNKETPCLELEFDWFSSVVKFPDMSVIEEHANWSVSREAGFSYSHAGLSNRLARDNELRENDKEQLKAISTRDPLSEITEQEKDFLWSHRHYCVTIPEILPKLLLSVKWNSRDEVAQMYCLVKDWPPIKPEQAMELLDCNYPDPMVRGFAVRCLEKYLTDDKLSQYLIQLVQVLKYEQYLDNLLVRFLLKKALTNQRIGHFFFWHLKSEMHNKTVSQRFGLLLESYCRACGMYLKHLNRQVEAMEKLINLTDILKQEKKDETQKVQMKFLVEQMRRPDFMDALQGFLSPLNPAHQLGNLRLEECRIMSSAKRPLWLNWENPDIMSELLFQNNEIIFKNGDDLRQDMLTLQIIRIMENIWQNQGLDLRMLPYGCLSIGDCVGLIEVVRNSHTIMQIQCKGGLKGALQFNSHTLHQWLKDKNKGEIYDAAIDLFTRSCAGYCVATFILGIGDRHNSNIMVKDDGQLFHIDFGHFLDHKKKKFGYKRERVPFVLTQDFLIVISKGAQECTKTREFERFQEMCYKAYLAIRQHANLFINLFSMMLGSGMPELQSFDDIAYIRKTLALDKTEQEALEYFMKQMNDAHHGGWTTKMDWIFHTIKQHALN
T2 sequence (P27986 whole entry partner): as the sequence (P27986 whole entry partner, species assumed) above
p110γ, sequence (P48736 whole entry, species assumed): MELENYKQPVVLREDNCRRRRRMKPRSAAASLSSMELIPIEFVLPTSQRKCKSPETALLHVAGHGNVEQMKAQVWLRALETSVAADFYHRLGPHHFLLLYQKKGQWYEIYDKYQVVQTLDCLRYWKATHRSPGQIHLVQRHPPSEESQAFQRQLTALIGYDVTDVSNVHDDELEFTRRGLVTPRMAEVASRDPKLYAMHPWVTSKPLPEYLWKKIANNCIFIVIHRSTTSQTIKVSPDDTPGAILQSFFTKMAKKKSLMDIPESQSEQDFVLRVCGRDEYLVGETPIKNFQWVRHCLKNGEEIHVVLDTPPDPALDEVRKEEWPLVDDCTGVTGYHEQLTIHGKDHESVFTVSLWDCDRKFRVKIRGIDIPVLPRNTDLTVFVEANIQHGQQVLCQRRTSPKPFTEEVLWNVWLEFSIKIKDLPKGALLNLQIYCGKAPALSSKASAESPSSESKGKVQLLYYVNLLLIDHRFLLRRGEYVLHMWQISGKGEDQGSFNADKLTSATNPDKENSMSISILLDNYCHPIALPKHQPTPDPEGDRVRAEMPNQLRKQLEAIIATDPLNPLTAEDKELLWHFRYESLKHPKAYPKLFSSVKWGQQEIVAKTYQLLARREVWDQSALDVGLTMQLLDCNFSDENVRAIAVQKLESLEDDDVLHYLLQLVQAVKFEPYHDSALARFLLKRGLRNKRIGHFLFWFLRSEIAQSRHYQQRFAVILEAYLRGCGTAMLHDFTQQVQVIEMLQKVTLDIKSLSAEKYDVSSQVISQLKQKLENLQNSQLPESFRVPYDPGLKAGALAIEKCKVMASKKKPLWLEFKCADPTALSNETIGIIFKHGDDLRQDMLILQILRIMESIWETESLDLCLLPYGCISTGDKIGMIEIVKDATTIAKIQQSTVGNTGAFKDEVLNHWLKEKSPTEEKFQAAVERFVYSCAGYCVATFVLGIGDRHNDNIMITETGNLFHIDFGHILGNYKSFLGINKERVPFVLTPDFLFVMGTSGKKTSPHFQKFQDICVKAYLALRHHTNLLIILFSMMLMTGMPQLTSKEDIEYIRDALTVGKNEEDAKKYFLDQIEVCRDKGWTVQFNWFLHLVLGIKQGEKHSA
T1 sequence (O00329 whole entry): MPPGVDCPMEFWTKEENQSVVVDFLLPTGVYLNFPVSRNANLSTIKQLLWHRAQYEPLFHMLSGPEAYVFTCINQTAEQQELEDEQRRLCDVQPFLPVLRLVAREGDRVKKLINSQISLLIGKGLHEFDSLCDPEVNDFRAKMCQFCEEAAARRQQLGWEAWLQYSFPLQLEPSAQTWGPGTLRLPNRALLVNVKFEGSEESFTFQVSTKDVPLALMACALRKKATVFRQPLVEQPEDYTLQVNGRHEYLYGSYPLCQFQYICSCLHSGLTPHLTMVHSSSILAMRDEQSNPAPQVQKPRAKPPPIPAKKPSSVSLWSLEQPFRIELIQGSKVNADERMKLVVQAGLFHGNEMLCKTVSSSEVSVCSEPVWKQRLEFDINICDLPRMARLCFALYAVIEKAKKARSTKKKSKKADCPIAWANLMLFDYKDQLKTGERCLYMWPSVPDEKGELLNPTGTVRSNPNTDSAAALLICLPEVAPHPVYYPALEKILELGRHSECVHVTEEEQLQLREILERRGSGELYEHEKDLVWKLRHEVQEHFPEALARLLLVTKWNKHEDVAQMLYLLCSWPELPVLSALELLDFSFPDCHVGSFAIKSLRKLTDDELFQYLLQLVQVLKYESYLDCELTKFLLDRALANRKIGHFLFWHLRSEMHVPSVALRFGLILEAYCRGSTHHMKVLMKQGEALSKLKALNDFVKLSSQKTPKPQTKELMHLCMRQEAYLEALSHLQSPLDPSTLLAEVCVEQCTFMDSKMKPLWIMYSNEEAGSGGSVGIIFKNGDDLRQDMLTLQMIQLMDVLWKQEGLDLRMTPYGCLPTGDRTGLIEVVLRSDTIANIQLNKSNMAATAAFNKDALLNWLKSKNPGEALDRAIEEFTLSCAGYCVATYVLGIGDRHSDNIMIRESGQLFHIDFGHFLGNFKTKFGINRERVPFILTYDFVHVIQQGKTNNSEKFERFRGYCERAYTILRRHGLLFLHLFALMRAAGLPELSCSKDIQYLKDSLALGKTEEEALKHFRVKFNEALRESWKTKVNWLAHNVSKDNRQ
T1 sequence (P27986 whole entry partner): as the sequence (P27986 whole entry partner, species assumed) above

In the case of `FC(F)c1nc2ccccc2n1-c1nc(NC2(Cc3ccccc3)CCCC2)nc(N2CCOCC2)n1` [Compound A7, N-(1-benzylcyclopentyl)-4-(2-(difluoromethyl)-1H-benzo[d]imidazol-1-yl)-6-morpholino-1,3,5-triazin-2-amine], the IC50 – broadly, the midpoint of a concentration-inhibition curve – against p110γ was 200 to 500 nM; at mTOR it was greater than 500 nM; against p110δ, no more than 100 nM; at p110β, 100 to 200 nM; at p110α, greater than 500 nM. Besides, the α/δ ratio entry on p110δ is “A′ (A′ represents a ratio of greater than 8)”.

Regarding `FC(F)c1nc2ccccc2n1-c1nc(NC2(Cc3ccccc3)CC2)nc(N2CCOCC2)n1` [Compound A5, N-(1-benzylcyclopropyl)-4-(2-(difluoromethyl)-1H-benzo[d]imidazol-1-yl)-6-morpholino-1,3,5-triazin-2-amine], the IC50 at p110γ is greater than 500 nM; at mTOR, greater than 500 nM; against p110δ, no more than 100 nM; against p110β, greater than 500 nM; on p110α, greater than 500 nM. In addition, on p110δ, the α/δ ratio entry is on record as “A′ (A′ represents a ratio of greater than 8)”.

On to `FC(F)c1nc2ccccc2n1-c1nc(NC2(Cc3ccc(Br)cc3)CCCCC2)nc(N2CCOCC2)n1` [Compound A6, N-(1-(4-bromobenzyl)cyclohexyl)-4-(2-(difluoromethyl)-1H-benzo[d]imidazol-1-yl)-6-morpholino-1,3,5-triazin-2-amine], for which the IC50 against p110γ, on mTOR, on p110δ, at p110β and at p110α was greater than 500 nM each time. The α/δ ratio entry at p110δ is on record as “B′ (B′ represents a ratio of no less than 4 but no greater than 8)”.

Turning to `Cc1ccccc1CC1(Nc2nc(N3CCOCC3)nc(-n3c(C(F)F)nc4ccccc43)n2)CC1` [Compound A8, 4-(2-(difluoromethyl)-1H-benzo[d]imidazol-1-yl)-N-(1-(2-methylbenzyl)cyclopropyl)-6-morpholino-1,3,5-triazin-2-amine], the IC50 was greater than 500 nM against p110γ; greater than 500 nM at mTOR; 100 to 200 nM at p110δ; greater than 500 nM against p110β; greater than 500 nM against p110α. Besides, at p110δ, the α/δ ratio result is reported as “B′ (B′ represents a ratio of no less than 4 but no greater than 8)”.

Take `FC(F)c1nc2ccccc2n1-c1nc(NC2(c3ccccc3)CC2)nc(N2CCOCC2)n1` [Compound A1, 4-(2-(difluoromethyl)-1H-benzo[d]imidazol-1-yl)-6-morpholino-N-(1-phenylcyclopropyl)-1,3,5-triazin-2-amine]: at p110δ, the IC50 was no more than 100 nM and the α/δ ratio entry is given as “B′ (B′ represents a ratio of no less than 4 but no greater than 8)”. The compound further showed an IC50 against p110α of 200 to 500 nM.

Take `FC(F)c1nc2ccccc2n1-c1nc(NC2(c3ccccc3)CCCCC2)nc(N2CCOCC2)n1` [Compound A4, 4-(2-(difluoromethyl)-1H-benzo[d]imidazol-1-yl)-6-morpholino-N-(1-phenylcyclohexyl)-1,3,5-triazin-2-amine]: on p110δ, the IC50 is 200 to 500 nM and the α/δ ratio entry is given as “A′ (A′ represents a ratio of greater than 8)”. The compound further came in with an IC50 against p110α greater than 500 nM.

Consider `FC(F)c1nc2ccccc2n1-c1nc(NCc2ccccc2)nc(N2CCOCC2)n1` [Ref. 1, N-benzyl-4-(2-(difluoromethyl)-1H-benzo[d]imidazol-1-yl)-6-morpholino-1,3,5-triazin-2-amine, reference compound], for which the IC50 at p110δ and against p110α was 100 to 200 nM throughout. Moreover, at p110δ, the α/δ ratio entry is listed as “D′ (D′ represents a ratio of no greater than 2)”.

On to `FC(F)c1nc2ccccc2n1-c1nc(NC2(Cc3ccccc3Cl)CC2)nc(N2CCOCC2)n1` [Compound A10, N-(1-(2-chlorobenzyl)cyclopropyl)-4-(2-(difluoromethyl)-1H-benzo[d]imidazol-1-yl)-6-morpholino-1,3,5-triazin-2-amine], for which the IC50 against p110γ is greater than 500 nM; against mTOR it was greater than 500 nM; on p110δ, 200 to 500 nM; at p110β it was greater than 500 nM; against p110α, greater than 500 nM. Besides, the α/δ ratio result at p110δ is listed as “A′ (A′ represents a ratio of greater than 8)”.

Consider `FC(F)c1nc2ccccc2n1-c1nc(NC2(Cc3ccccc3)CCC2)nc(N2CCOCC2)n1` [Compound A11, 4-(2-(difluoromethyl)-1H-benzo[d]imidazol-1-yl)-N-(1-benzylcyclobutyl)-6-morpholino-1,3,5-triazin-2-amine], for which the IC50 at p110γ was 200 to 500 nM; against mTOR, greater than 500 nM; against p110δ it was no more than 100 nM; on p110β, no more than 100 nM; on p110α, greater than 500 nM. Further, the α/δ ratio result at p110δ is recorded as “A′ (A′ represents a ratio of greater than 8)”.

For `FC(F)c1nc2ccccc2n1-c1nc(NC2(c3ccccc3)CCCC2)nc(N2CCOCC2)n1` [Compound A3, 4-(2-(difluoromethyl)-1H-benzo[d]imidazol-1-yl)-6-morpholino-N-(1-phenylcyclopentyl)-1,3,5-triazin-2-amine], on p110δ, the concentration for half-maximal inhibition (IC50) was greater than 500 nM and the α/δ ratio entry was “A′ (A′ represents a ratio of greater than 8)”. Further, the IC50 against p110α is greater than 500 nM.

The values above are taken from US20140088102A1, “(ALPHA-SUBSTITUTED CYCLOALKYLAMINO AND HETEROCYCLYLAMINO) PYRIMIDINYL AND 1,3,5-TRIAZINYL BENZIMIDAZOLES, PHARMACEUTICAL COMPOSITIONS THEREOF, AND THEIR USE IN TREATING PROLIFERATIVE DISEASES” (MEI PHARMA, INC., priority 2011, published 2014).
